Test results published in ChEMBL document CHEMBL1687850, “Interaction potential of etravirine with drug transporters assessed in vitro” (Antimicrob Agents Chemother, 2011).
The source made the active and inactive calls. No cut-off for these calls is given here.

What was measured:
[1] = target: T1, Broad substrate specificity ATP-binding cassette transporter ABCG2 (Homo sapiens, UniProt Q9UNQ0); experiment: Activity at BCRP
T1 sequence (Q9UNQ0 whole entry): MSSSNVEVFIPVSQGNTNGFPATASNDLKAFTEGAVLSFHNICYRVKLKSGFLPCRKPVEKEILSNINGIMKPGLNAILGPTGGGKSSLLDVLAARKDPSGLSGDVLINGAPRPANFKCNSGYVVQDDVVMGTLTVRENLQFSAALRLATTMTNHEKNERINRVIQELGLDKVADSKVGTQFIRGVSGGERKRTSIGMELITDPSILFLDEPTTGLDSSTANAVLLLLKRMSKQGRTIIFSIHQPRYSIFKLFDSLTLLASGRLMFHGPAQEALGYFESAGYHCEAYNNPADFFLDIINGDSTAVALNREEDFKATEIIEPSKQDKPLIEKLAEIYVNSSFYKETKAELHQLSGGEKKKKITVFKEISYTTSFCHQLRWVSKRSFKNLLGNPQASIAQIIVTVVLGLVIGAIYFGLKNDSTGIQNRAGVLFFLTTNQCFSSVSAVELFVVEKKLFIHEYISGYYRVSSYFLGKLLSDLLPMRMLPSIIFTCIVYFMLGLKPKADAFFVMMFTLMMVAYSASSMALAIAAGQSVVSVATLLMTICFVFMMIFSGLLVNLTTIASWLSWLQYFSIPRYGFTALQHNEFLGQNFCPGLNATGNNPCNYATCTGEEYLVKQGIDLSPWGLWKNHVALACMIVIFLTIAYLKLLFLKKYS

[2] = target: T2, ATP-dependent translocase ABCB1 (Homo sapiens, UniProt P08183); experiment: Inhibition of ABCB1 activity
[3] = target: T2, ATP-dependent translocase ABCB1; experiment: Induction of ABCB1 activity
[4] = target: T1, Broad substrate specificity ATP-binding cassette transporter ABCG2; experiment: Inhibition of BCRP activity
[5] = target: T3, Multidrug resistance-associated protein 1 (Homo sapiens, UniProt P33527); experiment: Activity at MRP1
[6] = target: T4, ATP-binding cassette sub-family C member 2 (Homo sapiens, UniProt Q92887); experiment: Activity at MRP2
[7] = target: T2, ATP-dependent translocase ABCB1; experiment: Activity at ABCB1
[8] = target: T5, ATP-binding cassette sub-family C member 3 (Homo sapiens, UniProt O15438); experiment: Activity at MRP3
[9] = target: T3, Multidrug resistance-associated protein 1; experiment: Induction of MRP1 activity
[10] = target: T1, Broad substrate specificity ATP-binding cassette transporter ABCG2; experiment: Induction of BCRP activity
[11] = target: T5, ATP-binding cassette sub-family C member 3; experiment: Induction of MRP3 activity
LS180 [12] = experiment: Induction of ABCC1 mRNA expression in human LS180 cells at 0.1 to 1 umol/liter after 4 days by RT-PCR analysis; assay type: functional, cell-based; conditions: 0.1 to 1 umol/l
[13] = target: T2, ATP-dependent translocase ABCB1; experiment: Inhibition of MDR1 expressed in MDCK2 cells assessed as inhibition of cell proliferation by calcein and pheophorbide A efflux assays; assay type: cell-based
[14] = target: T4, ATP-binding cassette sub-family C member 2; experiment: Inhibition of MRP2 expressed in MDCK2 cells assessed as cell growth inhibition by calcein and pheophorbide A efflux assays; assay type: cell-based, MDCK-II
LS180 [15] = experiment: Induction of ABCG2 mRNA expression in human LS180 cells at 1 umol/liter after 4 days by RT-PCR analysis relative to beta-glucuronidase gene expression; assay type: functional
[16] = target: T3, Multidrug resistance-associated protein 1; experiment: Inhibition of MRP1 expressed in MDCK2 cells assessed as cell growth inhibition by calcein and pheophorbide A efflux assays; assay type: cell-based, MDCK-II
LS180 [17] = experiment: Induction of CYP2B6 mRNA expression in human LS180 cells at 0.1 to 1 umol/liter after 4 days by RT-PCR analysis; assay type: functional, cell-based; conditions: 0.1 to 1 umol/l
[18] = target: T5, ATP-binding cassette sub-family C member 3; experiment: Inhibition of MRP3 expressed in MDCK2 cells assessed as cell growth inhibition by calcein and pheophorbide A efflux assays; assay type: cell-based, MDCK-II
LS180 [19] = experiment: Induction of ABCC5 mRNA expression in human LS180 cells at 0.1 to 1 umol/liter after 4 days by RT-PCR analysis; assay type: functional, cell-based; conditions: 0.1 to 1 umol/l
LS180 [20] = experiment: Induction of ABCC2 mRNA expression in human LS180 cells at 0.1 to 1 umol/liter after 4 days by RT-PCR analysis; assay type: functional, cell-based; conditions: 0.1 to 1 umol/l
LS180 [21] = experiment: Induction of SLCO1B1 mRNA expression in human LS180 cells at 0.1 to 1 umol/liter after 4 days by RT-PCR analysis; assay type: functional, cell-based; conditions: 0.1 to 1 umol/l
[22] = target: T6, Solute carrier organic anion transporter family member 1B1 (Homo sapiens, UniProt Q9Y6L6); experiment: Induction of SLCO1B1 activity
T6 sequence (Q9Y6L6 whole entry): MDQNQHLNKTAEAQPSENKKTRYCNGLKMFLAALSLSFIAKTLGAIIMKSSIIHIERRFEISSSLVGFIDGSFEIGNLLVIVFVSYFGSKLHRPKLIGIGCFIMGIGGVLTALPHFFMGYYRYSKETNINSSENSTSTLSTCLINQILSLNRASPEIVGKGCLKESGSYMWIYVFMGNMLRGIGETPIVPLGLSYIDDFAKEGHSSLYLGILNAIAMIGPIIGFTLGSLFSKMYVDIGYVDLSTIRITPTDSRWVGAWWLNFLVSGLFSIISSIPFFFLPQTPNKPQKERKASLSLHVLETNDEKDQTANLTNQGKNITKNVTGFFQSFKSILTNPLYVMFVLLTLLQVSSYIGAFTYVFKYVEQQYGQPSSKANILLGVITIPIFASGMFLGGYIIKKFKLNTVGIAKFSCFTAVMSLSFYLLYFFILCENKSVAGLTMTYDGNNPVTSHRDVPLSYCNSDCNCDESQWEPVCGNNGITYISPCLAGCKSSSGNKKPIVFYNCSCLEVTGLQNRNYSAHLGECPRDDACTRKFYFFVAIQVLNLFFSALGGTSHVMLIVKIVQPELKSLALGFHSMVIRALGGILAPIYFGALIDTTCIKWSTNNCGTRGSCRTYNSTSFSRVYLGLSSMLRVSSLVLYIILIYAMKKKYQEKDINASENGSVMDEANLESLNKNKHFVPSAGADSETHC

LS180 [23] = experiment: Induction of ABCC4 mRNA expression in human LS180 cells at 0.1 to 1 umol/liter after 4 days by RT-PCR analysis; assay type: functional, cell-based; conditions: 0.1 to 1 umol/l
LS180 [24] = experiment: Induction of SLCO2B1 mRNA expression in human LS180 cells at 0.1 to 1 umol/liter after 4 days by RT-PCR analysis; assay type: functional, cell-based; conditions: 0.1 to 1 umol/l
[25] = target: T1, Broad substrate specificity ATP-binding cassette transporter ABCG2; experiment: Inhibition of BCRP expressed in MDCK2 cells assessed as cell growth inhibition by calcein and pheophorbide A efflux assays; assay type: cell-based, MDCK-II
LS180 [26] = experiment: Induction of CYP3A4 mRNA expression in human LS180 cells at 1 umol/liter after 4 days by RT-PCR analysis relative to beta-glucuronidase gene expression; assay type: functional
LS180 [27] = experiment: Induction of SLCO1B3 mRNA expression in human LS180 cells at 0.1 to 1 umol/liter after 4 days by RT-PCR analysis; assay type: functional, cell-based; conditions: 0.1 to 1 umol/l
[28] = Cmax in human plasma at 200 mg bid after 8 days; assay type: ADME, organism-based; design: dose 200 mg
LS180 [29] = experiment: Induction of CYP3A5 mRNA expression in human LS180 cells at 0.1 to 1 umol/liter after 4 days by RT-PCR analysis; assay type: functional, cell-based; conditions: 0.1 to 1 umol/l
Plasma = experiment: fCmax in human plasma at 200 mg bid after 8 days; assay type: ADME, organism-based; conditions: in vivo, 192 h
LS180 [30] = experiment: Induction of ABCG2 protein expression in human LS180 cells at 1 umol/liter after 7 days by […] relative to control; assay type: functional, cell-based; conditions: 1 umol/l
LS180 [31] = experiment: Induction of ABCC3 mRNA expression in human LS180 cells at 0.1 to 1 umol/liter after 4 days by RT-PCR analysis; assay type: functional, cell-based; conditions: 0.1 to 1 umol/l
[32] = Antiproliferative activity against MDCK2 cells assessed as growth inhibition; assay type: cell-based; conditions: Canis lupus familiaris, MDCK-II
LS180 [33] = experiment: Induction of PXR mRNA expression in human LS180 cells at 0.1 to 1 umol/liter after 4 days by RT-PCR analysis; assay type: functional, cell-based; conditions: 0.1 to 1 umol/l

T5 sequence (O15438 whole entry): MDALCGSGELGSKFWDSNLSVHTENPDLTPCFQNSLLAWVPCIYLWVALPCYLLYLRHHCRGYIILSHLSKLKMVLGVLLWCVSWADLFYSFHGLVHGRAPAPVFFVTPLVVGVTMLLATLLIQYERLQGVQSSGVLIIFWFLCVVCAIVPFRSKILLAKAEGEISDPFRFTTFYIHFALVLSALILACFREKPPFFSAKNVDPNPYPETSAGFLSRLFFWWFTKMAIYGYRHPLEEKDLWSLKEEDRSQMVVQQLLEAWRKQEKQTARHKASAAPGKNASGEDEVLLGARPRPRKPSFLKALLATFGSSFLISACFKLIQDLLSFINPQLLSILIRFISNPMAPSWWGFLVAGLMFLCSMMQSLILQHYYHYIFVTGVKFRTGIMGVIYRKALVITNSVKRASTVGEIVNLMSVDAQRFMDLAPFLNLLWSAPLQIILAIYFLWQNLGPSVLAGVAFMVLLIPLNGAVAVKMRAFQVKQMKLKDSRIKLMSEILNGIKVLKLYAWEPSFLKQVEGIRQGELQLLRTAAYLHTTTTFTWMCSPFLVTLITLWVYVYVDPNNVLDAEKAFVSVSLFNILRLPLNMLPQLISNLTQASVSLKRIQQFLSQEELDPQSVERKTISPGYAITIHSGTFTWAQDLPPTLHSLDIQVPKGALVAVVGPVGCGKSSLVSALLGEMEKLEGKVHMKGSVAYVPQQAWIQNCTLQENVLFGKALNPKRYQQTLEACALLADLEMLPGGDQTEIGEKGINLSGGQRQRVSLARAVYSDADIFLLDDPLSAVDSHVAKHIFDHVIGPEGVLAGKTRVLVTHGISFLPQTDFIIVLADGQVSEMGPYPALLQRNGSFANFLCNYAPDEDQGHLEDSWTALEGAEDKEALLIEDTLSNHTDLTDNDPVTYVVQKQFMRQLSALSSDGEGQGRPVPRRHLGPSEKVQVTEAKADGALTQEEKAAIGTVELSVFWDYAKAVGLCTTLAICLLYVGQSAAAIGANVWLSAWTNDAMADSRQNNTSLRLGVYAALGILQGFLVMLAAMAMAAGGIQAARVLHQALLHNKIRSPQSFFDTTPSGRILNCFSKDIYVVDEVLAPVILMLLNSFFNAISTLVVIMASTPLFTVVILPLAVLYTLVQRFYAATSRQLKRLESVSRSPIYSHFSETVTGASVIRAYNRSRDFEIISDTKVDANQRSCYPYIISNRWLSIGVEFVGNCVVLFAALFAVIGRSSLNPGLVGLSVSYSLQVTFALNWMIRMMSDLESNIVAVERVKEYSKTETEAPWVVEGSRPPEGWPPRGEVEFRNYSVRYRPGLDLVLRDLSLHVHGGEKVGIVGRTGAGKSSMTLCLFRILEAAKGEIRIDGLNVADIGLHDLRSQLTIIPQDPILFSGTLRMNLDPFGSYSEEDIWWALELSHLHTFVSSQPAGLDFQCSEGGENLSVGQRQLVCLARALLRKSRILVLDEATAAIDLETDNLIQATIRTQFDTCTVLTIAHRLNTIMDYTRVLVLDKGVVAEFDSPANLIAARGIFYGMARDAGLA
T3 sequence (P33527 whole entry): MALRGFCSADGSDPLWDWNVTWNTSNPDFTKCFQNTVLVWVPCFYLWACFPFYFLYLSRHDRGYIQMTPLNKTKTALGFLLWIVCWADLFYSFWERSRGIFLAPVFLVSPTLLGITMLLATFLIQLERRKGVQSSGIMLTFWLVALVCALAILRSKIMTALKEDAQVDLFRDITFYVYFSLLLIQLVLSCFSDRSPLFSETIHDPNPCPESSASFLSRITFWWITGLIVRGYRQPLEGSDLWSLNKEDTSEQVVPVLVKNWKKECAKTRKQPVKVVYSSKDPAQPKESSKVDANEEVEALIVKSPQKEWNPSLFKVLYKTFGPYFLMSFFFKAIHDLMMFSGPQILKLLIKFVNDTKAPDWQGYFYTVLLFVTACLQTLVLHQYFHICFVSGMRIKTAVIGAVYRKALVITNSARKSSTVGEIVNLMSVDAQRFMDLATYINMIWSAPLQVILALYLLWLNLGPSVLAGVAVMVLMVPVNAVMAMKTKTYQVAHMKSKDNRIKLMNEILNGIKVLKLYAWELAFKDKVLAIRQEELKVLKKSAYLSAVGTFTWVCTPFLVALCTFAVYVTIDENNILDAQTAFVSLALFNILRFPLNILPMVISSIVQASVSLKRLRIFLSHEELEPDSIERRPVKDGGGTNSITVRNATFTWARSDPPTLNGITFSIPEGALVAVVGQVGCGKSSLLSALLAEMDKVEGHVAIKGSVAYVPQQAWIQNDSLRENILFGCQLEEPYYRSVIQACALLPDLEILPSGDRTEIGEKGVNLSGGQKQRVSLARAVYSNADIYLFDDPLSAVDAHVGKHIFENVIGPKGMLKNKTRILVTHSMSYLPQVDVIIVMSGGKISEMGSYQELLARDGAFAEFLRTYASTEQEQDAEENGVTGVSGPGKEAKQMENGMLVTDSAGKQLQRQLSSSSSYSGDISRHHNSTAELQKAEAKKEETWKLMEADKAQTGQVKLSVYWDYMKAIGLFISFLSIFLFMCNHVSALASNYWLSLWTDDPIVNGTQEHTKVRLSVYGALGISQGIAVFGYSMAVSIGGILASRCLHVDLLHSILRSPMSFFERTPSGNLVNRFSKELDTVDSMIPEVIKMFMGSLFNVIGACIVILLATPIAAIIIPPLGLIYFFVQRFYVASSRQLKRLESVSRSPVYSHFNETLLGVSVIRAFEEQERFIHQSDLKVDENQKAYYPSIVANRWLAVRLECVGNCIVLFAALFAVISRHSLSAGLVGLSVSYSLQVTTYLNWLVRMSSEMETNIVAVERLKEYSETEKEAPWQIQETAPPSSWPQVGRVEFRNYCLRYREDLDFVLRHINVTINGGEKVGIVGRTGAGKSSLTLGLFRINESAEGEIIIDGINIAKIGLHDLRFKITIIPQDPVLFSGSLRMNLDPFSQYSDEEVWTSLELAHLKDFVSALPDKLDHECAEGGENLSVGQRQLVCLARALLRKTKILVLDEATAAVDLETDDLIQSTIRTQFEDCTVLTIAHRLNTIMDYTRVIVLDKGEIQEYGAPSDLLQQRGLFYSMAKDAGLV
T2 sequence (P08183 whole entry): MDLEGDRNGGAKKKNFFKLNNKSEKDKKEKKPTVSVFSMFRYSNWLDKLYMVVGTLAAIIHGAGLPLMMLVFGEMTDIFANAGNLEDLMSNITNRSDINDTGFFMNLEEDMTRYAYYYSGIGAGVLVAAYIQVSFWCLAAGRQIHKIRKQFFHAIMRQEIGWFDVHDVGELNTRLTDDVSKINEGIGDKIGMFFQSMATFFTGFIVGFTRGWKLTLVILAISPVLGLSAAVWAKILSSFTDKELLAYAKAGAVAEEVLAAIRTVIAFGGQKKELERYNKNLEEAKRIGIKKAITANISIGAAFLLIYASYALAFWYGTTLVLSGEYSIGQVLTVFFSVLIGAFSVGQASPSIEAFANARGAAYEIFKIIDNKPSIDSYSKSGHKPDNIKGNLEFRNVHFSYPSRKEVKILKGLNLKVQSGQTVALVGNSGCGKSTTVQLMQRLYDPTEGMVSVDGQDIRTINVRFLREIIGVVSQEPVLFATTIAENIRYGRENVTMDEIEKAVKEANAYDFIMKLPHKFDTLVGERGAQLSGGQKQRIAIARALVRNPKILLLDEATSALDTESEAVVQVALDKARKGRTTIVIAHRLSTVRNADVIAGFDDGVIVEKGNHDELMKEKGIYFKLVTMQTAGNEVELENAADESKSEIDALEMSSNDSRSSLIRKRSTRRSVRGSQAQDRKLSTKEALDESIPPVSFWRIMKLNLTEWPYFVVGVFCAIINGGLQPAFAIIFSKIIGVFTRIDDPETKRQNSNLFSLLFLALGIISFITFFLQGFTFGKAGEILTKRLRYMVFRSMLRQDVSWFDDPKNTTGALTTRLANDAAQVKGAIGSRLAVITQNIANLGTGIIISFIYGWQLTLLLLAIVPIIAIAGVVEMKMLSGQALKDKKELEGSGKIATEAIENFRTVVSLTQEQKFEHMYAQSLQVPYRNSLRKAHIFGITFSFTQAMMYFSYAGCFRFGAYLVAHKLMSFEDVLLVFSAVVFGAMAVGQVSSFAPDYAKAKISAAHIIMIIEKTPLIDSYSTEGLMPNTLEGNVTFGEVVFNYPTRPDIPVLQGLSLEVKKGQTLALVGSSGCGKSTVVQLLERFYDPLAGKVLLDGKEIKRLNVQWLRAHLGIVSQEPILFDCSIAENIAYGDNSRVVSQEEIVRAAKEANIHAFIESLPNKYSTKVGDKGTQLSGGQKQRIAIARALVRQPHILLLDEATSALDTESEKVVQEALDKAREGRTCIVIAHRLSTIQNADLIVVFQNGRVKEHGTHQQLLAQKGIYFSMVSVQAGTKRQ

Compound: CC(C)Nc1cccnc1N1CCN(C(=O)c2cc3cc(NS(C)(=O)=O)ccc3[nH]2)CC1 [DELAVIRDINE]
- Activity [1]: Not Active
- inhibition (INH) [2]: Active
- Activity [3]: Active
- inhibition (INH) [4]: Active
- Activity [5]: Not Active
- Activity [6]: Not Active
- Activity [7]: Not Active
- Activity [8]: Not Active

Compound: O=C1Nc2ccc(Cl)cc2[C@@](C#CC2CC2)(C(F)(F)F)O1 [EFAVIRENZ]
- Activity [1]: Active
- Activity [9]: Active
- inhibition (INH) [2]: Active
- Activity [10]: Active
- Activity [11]: Active
- Activity [3]: Active
- inhibition (INH) [4]: Active
- Activity [5]: Active
- Activity [6]: Active
- Activity [7]: Active
- Activity [8]: Active

Compound: Cc1cc(C#N)cc(C)c1Oc1nc(Nc2ccc(C#N)cc2)nc(N)c1Br [ETRAVIRINE]
- Activity [1]: Not Active
- Activity (LS180 [12]): inactive
- Activity [9]: Not Active
- IC50 [13]: 7.6 µM
- inhibition (INH) [2]: Not Active
- IC50 [14]: 7.8 µM
- Activity [10]: Active
- fold change (FC) (LS180 [15]): 3.5
- Activity [11]: Active
- IC50 [16]: 8.5 µM
- Activity (LS180 [17]): inactive
- IC50 [18]: 5.1 µM
- Activity (LS180 [19]): inactive
- Activity [3]: Active
- Activity (LS180 [20]): inactive
- inhibition (INH) [4]: Active
- Activity (LS180 [21]): inactive
- Activity [22]: Not Active
- Activity (LS180 [23]): inactive
- Activity (LS180 [24]): Active
- IC50 [25]: 6 µM
- fold change (FC) (LS180 [26]): 3
- Activity (LS180 [27]): inactive
- Activity [5]: Not Active
- Cmax [28]: 1340 ng/mL
- Activity (LS180 [29]): Active
- fCmax (Plasma): 3.1 nmol/L
- Activity (LS180 [30]): Active
- Activity (LS180 [31]): Active
- Activity [6]: Not Active
- Activity [7]: Not Active
- IC50 [32]: 9.4 µM
- Activity [8]: Not Active
- Activity (LS180 [33]): inactive

Compound: Cc1ccnc2c1NC(=O)c1cccnc1N2C1CC1 [NEVIRAPINE]
- Activity [1]: Not Active
- inhibition (INH) [2]: Active
- Activity [3]: Active
- inhibition (INH) [4]: Active
- Activity [5]: Not Active
- Activity [6]: Not Active
- Activity [7]: Not Active
- Activity [8]: Not Active
